Where “and” joins values, the source holds several entries; their conditions need not be identical. Identical values can stand only once. Calls of active or inactive are those of the source. The rule behind the calls is not given here.
Each compound was assayed on PPC-1 cells, TRAIL-induced apoptosis potentiation (assay: TRAIL sensitization of PPC-1 cells, potency – analog series, SAR follow-up (AID 1752)).

| SMILES | IC50 |
| --- | --- |
| CSc1nc(-c2ccccc2)nc(-c2ccccc2)n1 | > 10 µM (inactive) |
| CSc1nc(-c2ccccc2)nc(-c2ccccc2OC(C)=O)n1 | > 10 µM (inactive) |
| CC(Sc1nc(-c2ccccc2)cc(C(F)(F)F)n1)C(=O)N1CCCC1 (stereo not drawn) | > 10 µM (inactive) |
| COc1cc(-c2ccccc2)[nH]c(=S)n1 | > 10 µM (inactive) |
| CSc1nc(-c2ccccc2)nc(C(C)C)n1 | > 10 µM (inactive) |
| CSc1nc(-c2ccc(C)cc2)nc(C(Cl)Cl)n1 | 0.372 µM and 0.602 µM |
| CCSc1cc(N2CCCC2)nc(-c2ccc(Cl)cc2)n1 | > 10 µM (inactive) |
| CCSc1nc(-c2ccccc2)cc(=O)[nH]1 | > 10 µM (inactive) |

From PubChem BioAssay AID1752 (Sanford-Burnham Center for Chemical Genomics, 2009)
